What was measured:
Assay type in all cases: functional
NCI-H522 = experiment: Growth inhibition of human NCI-H522 cells
HL-60(TB) = experiment: Growth inhibition of human HL-60(TB) cells
MCF7 = experiment: Growth inhibition of human MCF7 cells
NCI-H460 = experiment: Growth inhibition of human NCI-H460 cells
OVCAR-3 = experiment: Growth inhibition of human OVCAR-3 cells
Malme-3M = experiment: Growth inhibition of human MALME-3M cells
SK-MEL-2 = experiment: Growth inhibition of human SK-MEL-2 cells
RXF 393 = experiment: Growth inhibition of human […] cells
SK-MEL-28 = experiment: Growth inhibition of human SK-MEL-28 cells
RPMI-8226 = experiment: Growth inhibition of human RPMI8226 cells
MDA-MB-435 = experiment: Growth inhibition of human MDA-MB-435 cells
SNB-75 = experiment: Growth inhibition of human SNB75 cells
OVCAR-8 = experiment: Growth inhibition of human OVCAR8 cells
K562 = experiment: Growth inhibition of human K562 cells
U-251 = experiment: Growth inhibition of human U251 cells
UACC-62 = experiment: Growth inhibition of human UACC62 cells
A549 = experiment: Growth inhibition of human A549 cells
CAKI-1 = experiment: Growth inhibition of human Caki1 cells
SK-OV-3 = experiment: Growth inhibition of human SKOV3 cells
HOP-92 = experiment: Growth inhibition of human HOP92 cells
HCT-15 = experiment: Growth inhibition of human HCT15 cells
SK-MEL-5 = experiment: Growth inhibition of human SK-MEL-5 cells
CCRF-CEM = experiment: Growth inhibition of human CCRF-CEM cells
NCI-H322M = experiment: Growth inhibition of human NCI-H322M cells
ACHN = experiment: Growth inhibition of human ACHN cells
HCC 2998 = experiment: Growth inhibition of human HCC2998 cells
IGROV-1 = experiment: Growth inhibition of human IGROV1 cells
MDA-MB-231 = experiment: Growth inhibition of human MDA-MB-231 cells
NCI-H226 = experiment: Growth inhibition of human NCI-H226 cells
LOX IMVI = experiment: Growth inhibition of human LOXIMVI cells
NCI-H23 = experiment: Growth inhibition of human NCI-H23 cells
MDA-MB-468 = experiment: Growth inhibition of human MDA-MB-468 cells
SN12C = experiment: Growth inhibition of human SN12C cells
UO-31 = experiment: Growth inhibition of human UO31 cells
HT-29 = experiment: Growth inhibition of human HT-29 cells
HCT-116 = experiment: Growth inhibition of human HCT116 cells
[1] = Growth inhibition of human NCI60 cells
HOP-62 = experiment: Growth inhibition of human HOP62 cells
786-0 = experiment: Growth inhibition of human 786-0 cells
UACC-257 = experiment: Growth inhibition of human UACC257 cells
PC-3 = experiment: Growth inhibition of human PC3 cells
SF-539 = experiment: Growth inhibition of human SF539 cells
[2] = Growth inhibition of human Hs 578T cells
DU-145 = experiment: Growth inhibition of human DU145 cells
[3] = read-out: pLC50 (the source's name) (converted)

## CC(C)=CCC/C(C)=C/CC/C(C)=C/Cc1c(O)cc(/C=C/c2ccc(O)cc2)cc1O [SCHWEINFURTHIN J]
NCI-H522
  GI50: 1.82 µM
  LC50: 13.2 µM
NCI-H522; read-out: pTGI (converted)
  TGI: 4.47 µM
HL-60(TB)
  GI50: 2.57 µM
HL-60(TB); [3]
  CC50: > 100 µM
HL-60(TB); read-out: pTGI (converted)
  TGI: 18.6 µM
MCF7
  GI50: 2.57 µM
  LC50: 43.7 µM
MCF7; read-out: pTGI (converted)
  TGI: 11.2 µM
NCI-H460
  GI50: 3.24 µM
  LC50: 70.8 µM
NCI-H460; read-out: pTGI (converted)
  TGI: 12 µM
OVCAR-3
  GI50: 2 µM
  LC50 (concentration killing 50% of cells): 14.1 µM
OVCAR-3; read-out: pTGI (converted)
  TGI: 4.79 µM
Malme-3M
  GI50: 2.95 µM
  LC50: 39.8 µM
Malme-3M; read-out: pTGI (converted)
  TGI: 8.91 µM
SK-MEL-2
  GI50: 2.75 µM
  LC50: 31.6 µM
SK-MEL-2; read-out: pTGI (converted)
  TGI: 8.13 µM
RXF 393
  GI50: 1.86 µM
RXF 393; [3]
  CC50: 6.61 µM
RXF 393; read-out: pTGI (converted)
  TGI: 3.55 µM
SK-MEL-28
  GI50: 2.45 µM
SK-MEL-28; [3]
  CC50: 23.4 µM
SK-MEL-28; read-out: pTGI (converted)
  TGI: 6.46 µM
RPMI-8226
  GI50: 3.16 µM
  LC50: > 100 µM
RPMI-8226; read-out: pTGI (converted)
  TGI: 14.8 µM
MDA-MB-435
  GI50: 3.09 µM
MDA-MB-435; [3]
  CC50: 46.8 µM
MDA-MB-435; read-out: pTGI (converted)
  TGI: 10.5 µM
SNB-75
  GI50: 8.91 µM
  LC50: 46.8 µM
SNB-75; read-out: pTGI (converted)
  TGI: 21.4 µM
OVCAR-8
  GI50: 3.31 µM
  LC50: 43.7 µM
OVCAR-8; read-out: pTGI (converted)
  TGI: 11.5 µM
K562
  GI50: 3.72 µM
  LC50: > 100 µM
K562; read-out: pTGI (converted)
  TGI: 22.9 µM
U-251
  GI50: 2.75 µM
  LC50: 30.9 µM
U-251; read-out: pTGI (converted)
  TGI: 8.32 µM
UACC-62
  GI50: 2.24 µM
UACC-62; [3]
  CC50: 15.8 µM
UACC-62; read-out: pTGI (converted)
  TGI: 5.25 µM
A549
  GI50: 3.31 µM
  LC50: 42.7 µM
A549; read-out: pTGI (converted)
  TGI: 12.9 µM
CAKI-1
  GI50: 1.82 µM
CAKI-1; [3]
  CC50: 25.1 µM
CAKI-1; read-out: pTGI (converted)
  TGI: 5.89 µM
SK-OV-3
  GI50: 7.24 µM
SK-OV-3; [3]
  CC50: 44.7 µM
SK-OV-3; read-out: pTGI (converted)
  TGI: 19.5 µM
HOP-92
  GI50: 2.29 µM
HOP-92; [3]
  CC50: 34.7 µM
HOP-92; read-out: pTGI (converted)
  TGI: 8.32 µM
HCT-15
  GI50: 3.24 µM
  LC50 (50% lethal concentration): 64.6 µM
HCT-15; read-out: pTGI (converted)
  TGI: 16.6 µM
SK-MEL-5
  GI50: 1.7 µM
SK-MEL-5; [3]
  CC50: 5.75 µM
SK-MEL-5; read-out: pTGI (converted)
  TGI: 3.16 µM
CCRF-CEM
  GI50: 0.537 µM
  LC50: > 100 µM
CCRF-CEM; read-out: pTGI (converted)
  TGI: 17 µM
NCI-H322M
  GI50: 6.17 µM
  LC50: 47.9 µM
NCI-H322M; read-out: pTGI (converted)
  TGI: 20 µM
ACHN
  GI50: 3.8 µM
ACHN; [3]
  CC50: 38.9 µM
ACHN; read-out: pTGI (converted)
  TGI: 13.5 µM
HCC 2998
  GI50: 2.69 µM
  LC50: 21.4 µM
HCC 2998; read-out: pTGI (converted)
  TGI: 6.31 µM
IGROV-1
  GI50: 2.34 µM
IGROV-1; [3]
  CC50: 38.9 µM
IGROV-1; read-out: pTGI (converted)
  TGI: 11.2 µM
MDA-MB-231
  GI50: 3.47 µM
  LC50: 44.7 µM
MDA-MB-231; read-out: pTGI (converted)
  TGI: 11.7 µM
NCI-H226
  GI50: 3.63 µM
  LC50: 55 µM
NCI-H226; read-out: pTGI (converted)
  TGI: 14.8 µM
LOX IMVI
  GI50: 1.7 µM
LOX IMVI; [3]
  CC50: 5.89 µM
LOX IMVI; read-out: pTGI (converted)
  TGI: 3.16 µM
NCI-H23
  GI50: 3.02 µM
  LC50: 36.3 µM
NCI-H23; read-out: pTGI (converted)
  TGI: 8.51 µM
MDA-MB-468
  GI50: 2.69 µM
MDA-MB-468; [3]
  CC50: 36.3 µM
MDA-MB-468; read-out: pTGI (converted)
  TGI: 8.91 µM
SN12C
  GI50: 1.95 µM
SN12C; [3]
  CC50: 9.77 µM
SN12C; read-out: pTGI (converted)
  TGI: 4.37 µM
UO-31
  GI50: 1.32 µM
  LC50 (concentration killing 50% of cells): 34.7 µM
UO-31; read-out: pTGI (converted)
  TGI: 10.2 µM
HT-29
  GI50: 3.98 µM
  LC50: 49 µM
HT-29; read-out: pTGI (converted)
  TGI: 15.8 µM
HCT-116
  GI50: 1.86 µM
HCT-116; [3]
  CC50: 7.94 µM
HCT-116; read-out: pTGI (converted)
  TGI: 3.89 µM
[1]
  GI50: 2.8 µM
HOP-62
  GI50: 2.04 µM
  LC50: 7.41 µM
HOP-62; read-out: pTGI (converted)
  TGI: 3.89 µM
786-0
  GI50: 1.95 µM
786-0; [3]
  CC50: 9.77 µM
786-0; read-out: pTGI (converted)
  TGI: 4.37 µM
UACC-257
  GI50: 4.68 µM
  LC50: 41.7 µM
UACC-257; read-out: pTGI (converted)
  TGI: 16.2 µM
PC-3
  GI50: 3.02 µM
  LC50: 42.7 µM
PC-3; read-out: pTGI (converted)
  TGI: 13.5 µM
SF-539
  GI50: 2.51 µM
  LC50: 18.6 µM
SF-539; read-out: pTGI (converted)
  TGI: 5.62 µM
[2]
  GI50: 2.88 µM
  LC50: 89.1 µM
[2]; read-out: pTGI (converted)
  TGI: 12.3 µM
DU-145
  GI50: 3.72 µM
  LC50: 35.5 µM
DU-145; read-out: pTGI (converted)
  TGI: 12.9 µM

From ChEMBL document CHEMBL1154825, “Schweinfurthins I and J from Macaranga schweinfurthii” (2010)
